Source: patent publication US20180036289A1 (Gilead Sciences, Inc., priority 2016, published 2018)

Test system: cell lines tested
Assay: Cell proliferation assay, summary across all cell lines and drugs
Type: cell-based
Conditions: compared to primary drug alone
Experimental: All cell lines were obtained from the American Type Culture Collection (ATCC) Manassas, Va. (US). Master and working cell banks (MCB and WCB) were prepared by subculturing in ATCC-recommended media and freezing protocols (www.atcc.org). Cell line stocks for the assays were prepared from the WCB. The MCB, WCBs and assay stocks were prepared within respectively 3, 6 and 9 passages of the ATCC vial.
Solid powders of reference compounds were weighed on a calibrated balance and dissolved in 100% DMSO. DMSO samples were stored at room temperature. At the day of the experiment, the compound stock was diluted in 3.16 fold steps in 100% DMSO to obtain a 9-point dilution series. This was further diluted 31.6 times in 20 mM sterile Hepes buffer pH 7.4. A volume of 5 μl was transferred to the cells to generate a test concentration range from 3.16×10^−5M to 3.16×10^−9 M in duplicate. The final DMSO concentration during incubation was […] in all wells.
An assay stock was thawed and diluted in its ATCC recommended medium and dispensed in a 384-well plate, depending on the cell line used, at a concentration of 200-3200 cells per well in 45 μl medium. For each used cell line the optimal cell density is used. The margins of the plate were filled with phosphate-buffered saline. Plated cells were incubated in a humidified atmosphere of 5% CO2 at 37° C. After 24 hours, 5 μl of compound dilution was added and plates were further incubated for another 120 hours. After 120 hours, 25 μl of ATPlite 1Step™ (PerkinElmer) solution was added to each well, and subsequently shaken for 2 minutes. After 10 minutes of incubation in the dark, the luminescence was recorded on an Envision multimode reader (PerkinElmer).
IC50s were calculated by non-linear regression using IDBS XLfit 5. The percentage growth after 120 h (%-growth) was calculated as follows: 100%×(luminescencet=120h/luminescenceuntreated,t=120h). This was fitted to the ^10log compound concentration (conc) by a 4-parameter logistics curve: %−growth=bottom+(top−bottom)/(1+10^(log IC50-conc)*hill)), where hill is the Hill-coefficient, and bottom and top the asymptotic minimum and maximum cell growth that the compound allows in that assay.

CC(C)c1nc(CN(C)C(=O)N[C@@H](CCN2CCOCC2)C(=O)N[C@H](CC[C@H](Cc2ccccc2)NC(=O)OCc2cncs2)Cc2ccccc2)cs1 [cobicistat]
increase in sensitivity to the primary drug, maximum (maximum across all experiments): 8.7 fold | increase in sensitivity to the primary drug, average (on average, across all experiments): 2.9 fold
